The source of these data is patent publication US6660468B1, “Vitro and in vivo models for screening compounds to prevent glucocorticoid-induced bone destruction” (Board of Trustees of the University of Arkansas, priority 1998, dated 2003).

SMILES strings stand for the structures. Values joined by “and” are separate entries in the source; they are usually repeats but may differ in a detail not shown here. Identical values can stand only once.

The subject of series [1] is human osteoblasts and osteocytes. In words: Apoptosis (TUNEL) in transiliac bone biopsies of patients with glucocorticoid-induced osteoporosis. Type of series: in vivo. Conditions: two patients. The method, then: Sections were mounted on silane-coated glass slides (Scientific Device Lab, Inc., Des Plains, Ill.), deplasticized and incubated in 10 mM citrate buffer, pH 7.6, in a microwave oven at 98° C. for 5 minutes. Slides were then incubated with 0.5% pepsin for 30 minutes at 37° C. Apoptotic cells were detected by the TUNEL reaction (transferase-mediated biotin-dUTP nick end-labeling) using Klenow terminal deoxynucleotidyl transferase (Oncor, Gaithersburg, Md.) in sections counterstained with 1% methyl green. The TUNEL reaction was noted within cell nuclei and the cells whose nuclei were clearly brown from the peroxidase-labeled anti-digoxigenin antibody instead of the blue-green from the methyl green were interpreted as positive. Plastic-embedded sections of weaned rat mammary tissue were used as a positive control. Negative controls were made by omitting the transferase. Morphological changes characteristic of apoptosis were examined carefully to minimize ambiguity regarding the interpretation of results. With these precautions, TUNEL has been unequivocally associated with apoptosis (19). […] Apoptosis was also assessed in transiliac bone biopsy specimens taken from two patients with glucocorticoid-induced osteoporosis (receiving 15 to 25 mg/d of prednisone for 3 to 6 yr) and from 12 age-, sex- and race-matched controls (13). […]

A further series has as its system human cancellous bone. Kind of series: Bone histomorphometry of transiliac bone biopsies of patients. Type of series: in vivo. Conditions: two patients. Here is the method: The distal femora and lumbar vertebrae were fixed in 4° C. Millonig's phosphate-buffered 10% formalin, pH 7.4, embedded undecalcified in methyl methacrylate and stained (7,9,13). The histomorphometric examination was done with a computer and digitizer tablet (OsteoMetrics Inc. Version 3.00, Atlanta, Ga.) interfaced to a Zeiss Axioscope (Carl Zeiss, Inc., Thornwood, N.Y.) with a drawing tube attachment. All cancellous measurements were two-dimensional, confined to the secondary spongiosa and made at ×400 magnification (numerical aperture 0.75). The terminology and units used are those recommended by the Histomorphometry Nomenclature Committee of the American Society for Bone and Mineral Research (14). The trabecular width and osteoid width were measured directly. Trabecular spacing and number were calculated (15). Only TRAPase-positive cells were included in the osteoclast perimeter. The rate of bone formation (μm^2/μm/d) and turnover (%/d) were calculated (7).
Sections were mounted on silane-coated glass slides (Scientific Device Lab, Inc., Des Plains, Ill.), deplasticized and incubated in 10 mM citrate buffer, pH 7.6, in a microwave oven at 98° C. for 5 minutes. Slides were then incubated with 0.5% pepsin for 30 minutes at 37° C. Apoptotic cells were detected by the TUNEL reaction (transferase-mediated biotin-dUTP nick end-labeling) using Klenow terminal deoxynucleotidyl transferase (Oncor, Gaithersburg, Md.) in sections counterstained with 1% methyl green. The TUNEL reaction was noted within cell nuclei and the cells whose nuclei were clearly brown from the peroxidase-labeled anti-digoxigenin antibody instead of the blue-green from the methyl green were interpreted as positive. Plastic-embedded sections of weaned rat mammary tissue were used as a positive control. Negative controls were made by omitting the transferase. Morphological changes characteristic of apoptosis were examined carefully to minimize ambiguity regarding the interpretation of results. With these precautions, TUNEL has been unequivocally associated with apoptosis (19). […] Apoptosis was also assessed in transiliac bone biopsy specimens taken from two patients with glucocorticoid-induced osteoporosis (receiving 15 to 25 mg/d of prednisone for 3 to 6 yr) and from 12 age-, sex- and race-matched controls (13). Two longitudinal sections were examined from each patient and control subject. Osteoblasts were identified as cuboidal cells lining the osteoid-covered trabecular perimeter (7,9,13). Osteocytes were identified inside lacunae in mineralized bone.

As for `C[C@]12C=CC(=O)C=C1CC[C@@H]1[C@@H]2C(=O)C[C@@]2(C)[C@H]1CC[C@]2(O)C(=O)CO` [prednisone], the “Apoptosis of osteoclasts or cortical osteocytes” value in series [1] is reported as “not observed”. For the same compound, the “Apoptotic osteoblasts in cancellous bone” value in series [1] (15 to 25 mg/d for 3 to 6 yr, absent in controls) is on record as roughly 30%. The Cancellous bone area in the series on human cancellous bone (one value each, normal is 22.4±1.2 SEM) is 11.1% and 8.8%. Further, the Osteoclast perimeter in the series on human cancellous bone (normal is 0.9±0.2) was 0% and 0.4%. For the same compound, the Reversal perimeter in the series on human cancellous bone (normal is 6.9±0.7) is 13.5% and 15.4%. Further, in the series with human cancellous bone (normal is 7.6±0.4), the Osteoblast perimeter was 2.1% and 2.3%. Further, in the series with human cancellous bone (normal is 161±9), the Trabecular width was 62 μm and 118 μm.
